Experimental findings from patent EP0081312A2, “Antibiotics, their preparation and use” (BEECHAM GROUP PLC, priority 1981, dated 1983) are described below.

What is called MIC is the least concentration at which growth counts as inhibited.

Among the test systems are Bacillus Subtilis A; Enterobacter cloacae N1; Pseudomonas aeruginosa A; Citrobacter freundii Ei; Serratia marcescens US20; Klebsiella aerogenes A; Proteus mirabilis C977; Escherichia coli JT39; Proteus vulgaris WO91; Escherichia coli 0111; Escherichia coli ESS.
What all share (test): MIC, concentration required to inhibit growth of bacteria
What all share (type): cell-based

For test [1], the system named is Staphylococcus aureus Russell.
Test [2] has as its system Staphylococcus aureus 1517.
A further test relates to Streptococcus faecalis I. To be noted: Enterococcus faecalis.
For test [3], the system named is Salmonella typhirmurium CT10.
The test system of another test is Proteus rettgeri WM16. To be noted: Providencia rettgeri.
The next test has as its system Shigella sonnei MB 11967. To be noted: MB11967.
The next test deals with Proteus morganii 1580. To be noted: Morganella morganii.
For test [4], the system named is Staphylococcus aureux Oxford.
For test [5], the system named is Streptococcus pyogenes CN10.
Test [6] relates to Streptococcus pneumoniae CN33.
[7] abbreviates: Staphylococcus aureus Russell, read-out: MIC.
The mark [8] stands for this setting: Bacillus Subtilis A, read-out: MIC.
[9] abbreviates: Pseudomonas aeruginosa A, read-out: MIC.
[10] abbreviates: Citrobacter freundii Ei, read-out: MIC.
Setting [11] is: Streptococcus faecalis I, read-out: MIC.
The mark [12] stands for this setting: Klebsiella aerogenes A, read-out: MIC.
Where [13] appears, read: Proteus rettgeri WM16, read-out: MIC.
The mark [14] stands for this setting: Proteus morganii 1580, read-out: MIC.
The mark [15] stands for this setting: Staphylococcus aureux Oxford, read-out: MIC.

Values after ≈ are worked out from the molar mass of the structure shown. Like-named read-outs stand apart in the source and are kept apart here. Bounds are passed on as bounds.

Regarding `C[C@H](O)[C@@H]1C(=O)N2C(C(=O)O)=C(S/C=C\C(=O)N(C(=O)NC3CCCCC3)C3CCCCC3)C[C@H]12` [Example 1], the MIC in test [1] (setting [7]) was 0.8 µg/mL (≈ 1.58 µM); in the test on Bacillus Subtilis A (setting [8]), not above 0.1 µg/mL; in [2] (read-out: MIC), 6.2 µg/mL (≈ 12.3 µM); with Enterobacter cloacae N1 (read-out: MIC), 50 µg/mL (≈ 98.9 µM); in the test with Pseudomonas aeruginosa A (setting [9]) it was more than 100 µg/mL; in the test on Citrobacter freundii Ei (setting [10]) it was 12.5 µg/mL (≈ 24.7 µM). For the same compound, the MIC in the test with Serratia marcescens US20 (read-out: MIC) came to 25 µg/mL (≈ 49.4 µM); with Streptococcus faecalis I (setting [11]), 0.8 µg/mL (≈ 1.58 µM); with Klebsiella aerogenes A (setting [12]), 25 µg/mL (≈ 49.4 µM); in test [3], 25 µg/mL (≈ 49.4 µM); in the test on Proteus mirabilis C977 (read-out: MIC), 50 µg/mL (≈ 98.9 µM); in the test on Escherichia coli JT39 (read-out: MIC), 50 µg/mL (≈ 98.9 µM). Moreover, the MIC was found to be 50 µg/mL (≈ 98.9 µM) with Proteus rettgeri WM16 (setting [13]); 25 µg/mL (≈ 49.4 µM) with Proteus vulgaris WO91 (read-out: MIC); 25 µg/mL (≈ 49.4 µM) with Shigella sonnei MB 11967; 25 µg/mL (≈ 49.4 µM) in the test on Escherichia coli 0111; 25 µg/mL (≈ 49.4 µM) in the test on Proteus morganii 1580 (setting [14]); 0.4 µg/mL (≈ 0.791 µM) in test [4] (setting [15]). Further, the MIC in the test on Escherichia coli ESS was found to be 1.6 µg/mL (≈ 3.16 µM).

`C[C@H](O)[C@@H]1C(=O)N2C(C(=O)[O-])=C(S/C=C\C(=O)NCc3ccccc3)C[C@H]12.[Na+]` [Example 2, Sodium (5R,6R)-3-[(Z)-2 benzylaminocarbonylethenylthio]-6-[(S)-1-hydroxyethyl]-7-oxo-1-azabicyclo[3.2.0]hept-2-ene-2-carboxylate]: the MIC in test [1] (Staphylococcus aureus) is not above 0.1 µg/mL; with Bacillus Subtilis A (Bacillus subtilis), not above 0.1 µg/mL; in test [2], 1.6 µg/mL; in the test with Enterobacter cloacae N1, 0.2 µg/mL; in the test with Pseudomonas aeruginosa A (Pseudomonas aeruginosa), 25 µg/mL; in the test with Citrobacter freundii Ei (Citrobacter freundii), not above 0.1 µg/mL. Moreover, the MIC in the test on Serratia marcescens US20 is 0.4 µg/mL; in the test with Streptococcus faecalis I it was 0.2 µg/mL; against Klebsiella aerogenes A (Klebsiella aerogenes) it was 0.2 µg/mL; in [3] it was not above 0.1 µg/mL; with Proteus mirabilis C977, not above 0.1 µg/mL; against Escherichia coli JT39, 0.2 µg/mL. Also, the MIC is 0.4 µg/mL against Proteus rettgeri WM16 (WM16); 0.2 µg/mL in the test on Proteus vulgaris WO91; not above 0.1 µg/mL in the test with Shigella sonnei MB 11967; not above 0.1 µg/mL in test [5]; 0.2 µg/mL against Escherichia coli 0111; 0.8 µg/mL against Proteus morganii 1580 (1580). Also, the MIC (in test [4] (Staphylococcus); in the test with Escherichia coli ESS) was not above 0.1 µg/mL throughout.

In the case of `C[C@@H](OC=O)[C@H]1C(=O)N2C(C(=O)[O-])=C(S/C=C\C(=O)NCc3ccccc3)C[C@H]12.[Na+]` [Example 3, Sodium (5R,6S)-3-[(Z)-2-benzylaminocarbonylethenylthio]-6-[(R)-1-formyloxyethyl]-7-oxo-1-azabicyclo[3.2.0]hept-2-ene-2-carboxylate], the MIC was 0.8 µg/mL in test [6]; not above 0.1 µg/mL against Bacillus Subtilis A (Bacillus subtilis); 3.1 µg/mL in test [2]; 3.1 µg/mL with Enterobacter cloacae N1; 50 µg/mL against Pseudomonas aeruginosa A (Pseudomonas aeruginosa); 3.1 µg/mL with Citrobacter freundii Ei (Citrobacter freundii). For the same compound, the MIC in the test with Serratia marcescens US20 was 3.1 µg/mL; with Streptococcus faecalis I, 0.8 µg/mL; in the test with Klebsiella aerogenes A (Klebsiella aerogenes), 0.4 µg/mL; in test [3] it was 0.4 µg/mL; against Proteus mirabilis C977, 1.6 µg/mL; in the test on Escherichia coli JT39, 0.4 µg/mL. Moreover, the MIC came to 3.1 µg/mL in the test with Proteus rettgeri WM16 (WM16); 0.4 µg/mL in the test on Proteus vulgaris WO91; 1.6 µg/mL against Shigella sonnei MB 11967; 0.8 µg/mL in [5]; 0.8 µg/mL against Escherichia coli 0111; 6.2 µg/mL in the test on Proteus morganii 1580 (1580). Also, the MIC was not above 0.1 µg/mL in test [4] (Staphylococcus) and 0.4 µg/mL in the test on Escherichia coli ESS.

On to `C[C@@H](O)[C@H]1C(=O)N2C(C(=O)O)=C(S/C=C\C(=O)NCc3ccccc3)C[C@H]12` [Example 4, Sodium (5R,6S)-3-[(Z)-2 benzylaminocarbonylethenylthio]-6-[(R)-1-hydroxyethyl]-7-oxo-1-azabicyclo[3.2.0]hept-2-ene-2-carboxylate.], for which the MIC in test [1] (setting [7]) was not above 0.1 µg/mL; in [6] (read-out: MIC), not above 0.1 µg/mL; with Bacillus Subtilis A (setting [8]), not above 0.1 µg/mL; in test [2] (read-out: MIC), 6.2 µg/mL; in the test with Enterobacter cloacae N1 (read-out: MIC), 1.6 µg/mL; with Pseudomonas aeruginosa A (setting [9]) it was 50 µg/mL. Also, the minimum inhibitory concentration (MIC) with Citrobacter freundii Ei (setting [10]) was 0.8 µg/mL; with Serratia marcescens US20 (read-out: MIC), 0.8 µg/mL; in the test with Streptococcus faecalis I (setting [11]), 0.4 µg/mL; in the test with Klebsiella aerogenes A (setting [12]), not above 0.1 µg/mL; in test [3] it was 0.2 µg/mL; in the test on Proteus mirabilis C977 (read-out: MIC), 0.8 µg/mL. For the same compound, the MIC is not above 0.1 µg/mL in the test on Escherichia coli JT39 (read-out: MIC); 3.1 µg/mL with Proteus rettgeri WM16 (setting [13]); 0.4 µg/mL in the test on Proteus vulgaris WO91 (read-out: MIC); 0.4 µg/mL in the test with Shigella sonnei MB 11967; not above 0.1 µg/mL in test [5] (read-out: MIC); 0.2 µg/mL in the test on Escherichia coli 0111. In addition, the MIC in the test with Proteus morganii 1580 (setting [14]) was 1.6 µg/mL; in [4] (setting [15]), not above 0.1 µg/mL; in the test with Escherichia coli ESS, not above 0.1 µg/mL.

For the compound `CC(O)C1C(=O)N2C(C(=O)[O-])=C(S/C=C/C(N)=O)CC12.[Na+]` (stereo not shown) [Example 5, Sodium 3-[E-2-carbamoylethenylthio]-6-[1-hydroxyethyl]-7-oxo-1-azabicyclo[3.2.0]hept-2-ene-2-carboxylate], the MIC is 1.6 µg/mL in test [1] (Staphylococcus aureus); not above 0.1 µg/mL in [6]; 0.2 µg/mL in the test with Bacillus Subtilis A (Bacillus subtilis); 50 µg/mL in [2]; 1.6 µg/mL against Enterobacter cloacae N1; more than 100 µg/mL against Pseudomonas aeruginosa A (Pseudomonas aeruginosa). The MIC stood at 1.6 µg/mL in the test on Citrobacter freundii Ei (Citrobacter freundii); 3.1 µg/mL in the test with Serratia marcescens US20; 6.2 µg/mL against Streptococcus faecalis I; 1.6 µg/mL in the test with Klebsiella aerogenes A (Klebsiella aerogenes); 1.6 µg/mL in test [3]; 3.1 µg/mL against Proteus mirabilis C977. The MIC in the test with Escherichia coli JT39 was 0.8 µg/mL; against Proteus rettgeri WM16 (WM16) it was 6.2 µg/mL; against Proteus vulgaris WO91 it was 6.2 µg/mL; against Shigella sonnei MB 11967, 1.6 µg/mL; in [5], 0.2 µg/mL; in the test with Escherichia coli 0111, 0.4 µg/mL. For the same compound, the minimum inhibitory concentration (MIC) in the test with Proteus morganii 1580 (1580) was 6.2 µg/mL; in [4] (Staphylococcus) it was 0.8 µg/mL; against Escherichia coli ESS, 0.4 µg/mL.

On to `CC(O)C1C(=O)N2C(C(=O)[O-])=C(S/C=C\C(N)=O)CC12.[Na+]` (stereo not shown) [Example 6, Sodium 3-[Z-2-carbamoylethenylthio]-6-[1-hydroxyethyl]-7-oxo-1-azabicyclo[3.2.0]hept-2-ene-2-carboxylate], for which the MIC in test [1] (Staphylococcus aureus) is 3.1 µg/mL; in the test with Bacillus Subtilis A (Bacillus subtilis), 1.6 µg/mL; in test [2], 100 µg/mL; with Enterobacter cloacae N1, 25 µg/mL; in the test with Pseudomonas aeruginosa A (Pseudomonas aeruginosa), more than 100 µg/mL; against Citrobacter freundii Ei (Citrobacter freundii) it was 50 µg/mL. Besides, the MIC in the test on Serratia marcescens US20 came out at 12.5 µg/mL; against Streptococcus faecalis I it was 50 µg/mL; against Klebsiella aerogenes A (Klebsiella aerogenes), 6.2 µg/mL; in [3], 6.2 µg/mL; against Proteus mirabilis C977 it was 50 µg/mL; in the test with Escherichia coli JT39 it was 12.5 µg/mL. The MIC in the test with Proteus rettgeri WM16 (WM16) turned out to be 50 µg/mL; with Proteus vulgaris WO91, 25 µg/mL; in the test with Shigella sonnei MB 11967, 12.5 µg/mL; in test [5] it was 3.1 µg/mL; with Escherichia coli 0111, 6.2 µg/mL; against Proteus morganii 1580 (1580), 50 µg/mL. The MIC in [4] (Staphylococcus) was 1.6 µg/mL; in the test with Escherichia coli ESS, 3.1 µg/mL.
